From US9079859B2, “Synthetic lethal targeting of glucose transport” (AUCKLAND UNISERVICES LIMITED, priority 2011, dated 2015)

How the values were obtained:
RCC4 cells [1] = assay: Clonogenic survival, RCC4; type: cell-based; settings: STF-31 5 μM, media replaced, grown for a total of 10 days (FIG. 1D)
Method: Cell Viability Assays. For 2,3-bis[2-methoxy-4-nitro-5-sulfophenyl]-2H-tetrazolium-5-carboxanilide (XTT) assays, five thousand cells were plated in 96-well plates. The next day, vehicle (DMSO) or drug was added by serial dilution. Four days later, media were aspirated, XTT solution (0.3 mg/ml of XTT (Sigma), […] N-methyl dibenxopyrazine methyl sulfate (Sigma) in phenol red-free media) was added, and the plates were incubated at 37° C. for 1-2 hours. Metabolism of XTT was quantified by measuring the absorbance at 450 nm. IC50s were calculated using linear interpolation. For clonogenic survival assays, three hundred cells were plated per 60 mm tissue culture dish. […] Colonies were fixed and stained with crystal violet (0.1% crystal violet in 95% ethanol). All conditions were measured in triplicate and each experiment was done in duplicate or triplicate. To determine necrosis, cells were treated with drug for a given time point. Media and cells were collected, centrifugated, and resuspended in 0.4% trypan blue (Invitrogen). Live and dead cells were counted on a hematocytometer.

RCC4/VHL cells = assay: Necrotic cell death by trypan blue, RCC4/VHL; type: cell-based; settings: 5 μM, 3 days
Method: Cell Viability Assays. For 2,3-bis[2-methoxy-4-nitro-5-sulfophenyl]-2H-tetrazolium-5-carboxanilide (XTT) assays, five thousand cells were plated in 96-well plates. The next day, vehicle (DMSO) or drug was added by serial dilution. Four days later, media were aspirated, XTT solution (0.3 mg/ml of XTT (Sigma), […] N-methyl dibenxopyrazine methyl sulfate (Sigma) in phenol red-free media) was added, and the plates were incubated at 37° C. for 1-2 hours. Metabolism of XTT was quantified by measuring the absorbance at 450 nm. IC50s were calculated using linear interpolation. For clonogenic survival assays, three hundred cells were plated per 60 mm tissue culture dish. The cells were allowed to attach overnight and then treated with vehicle or drug for 14 days. Colonies were fixed and stained with crystal violet (0.1% crystal violet in 95% ethanol). All conditions were measured in triplicate and each experiment was done in duplicate or triplicate. To determine necrosis, cells were treated with drug for a given time point. Media and cells were collected, centrifugated, and resuspended in 0.4% trypan blue (Invitrogen). Live and dead cells were counted on a hematocytometer.

LC3 = assay: Autophagy markers (vacuoles, LC3 processing); type: cell-based; settings: RCC4 and RCC4/VHL; 1.25, 2.5 and 5 μM
RCC4 and RCC4/VHL cells = assay: Apoptosis (nuclear condensation, annexin V / propidium iodide); type: cell-based; settings: VHL-deficient and wild-type VHL RCCs, DAPI
RCC4 cells [2] = assay: Glucose uptake (2-deoxy-D-[3H]glucose), RCC4; type: cell-based
Method: (§1) Glucose Uptake. One hundred thousand cells were plated per well in a six-well plate. The next day, cells were treated with the indicated concentration of drug and incubated for the indicated time. Cells were then washed twice with phosphate-buffered saline, incubated in low-glucose medium for 30 minutes, and 3H-2-deoxyglucose (0.5 μCi) was added in 1 ml of glucose-free media for an additional hour. Cells were washed twice in PBS and lysed (0.2 N NaOH and 0.2% sodium dodecyl sulfate). Glucose uptake was quantified with a scintillation counter.

[3] = tested on: RCC4 cells with HIF-1β silenced; assay: Glucose uptake in RCC4 cells with siRNA to HIF-1β; type: cell-based
Description: To further investigate the relationship between HIF and STF-31 toxicity, we silenced HIF-1β in RCC4 cells and assessed its affect on glucose uptake (FIG. 6D). Transiently inhibiting HIF-1β, the constitutively expressed binding partner of HIF-1α and HIF-2α reduces HIF activity in RCC4 cells to the levels found in wild-type VHL cells. Glucose uptake was insensitive to treatment with STF-31 when the HIF-1β was silenced in RCC4 cells, further supporting the concept that the HIF-dependent glucose uptake was responsible for the differential toxicity of STF-31 to VHL-deficient renal carcinomas (FIG. 2E).
as §1

VHL-deficient cells = assay: ATP levels (bioluminescence assay); type: cell-based
Method: (§2) Cell Culture and Reagents. All cells were grown in DMEM+10% FCS. ACHN and ACHN shVHL were a kind gift from George V. Thomas (UCLA). HIF overexpressing clones were described previously (Sutphin et al., Cancer Res, 67:5896-5905 (2007)). Transfection of RNA oligos were performed with DnarmaFECT Reagent 1 (Dharmcon), according to manufacturer's directions. ON-TARGETplus SMART pools against HIF-1 R/ARNT were purchased from Dharmacon. Inducible shRNAmir to GLUT1 was purchased from Open Biosystems. GLUT1 was detected with anti-GLUT1 antibody from NeoMarkers/LabVision/Fisher. For immunofluorescent studies, GLUT1, GLUT2, and GLUT3 antibodies were purchased from R&D. Pyruvate/lactate levels and hexokinase activity were both measured by fluorometric assay (BioVision and Sigma-Aldrich, respectively). ATP levels were measured by bioluminescence assay (ATP Determination Kit from Molecular Probes/Invitrogen). In vitro kinase activities were performed by Millipore Kinase Profiler.

50 different kinases = assay: In vitro kinase panel (Millipore Kinase Profiler); type: biochemical
Method: as §2

RCC4 = assay: RCC panel sensitivity (Table 2); type: cell-based; settings: RCC4, VHL mutant
RCC4/VHL = assay: RCC panel sensitivity (Table 2); type: cell-based; settings: VHL wild-type
SN12C = assay: RCC panel sensitivity (Table 2); type: cell-based; settings: VHL wild-type
SN12C shVHL = assay: RCC panel sensitivity (Table 2); type: cell-based; settings: VHL silenced

## CC(C)(C)c1ccc(S(=O)(=O)NCc2ccc(C(=O)Nc3cccnc3)cc2)cc1 [STF-31]
RCC4 cells [1]
  RCC4 cells killed following treatment: Approximately 80%
RCC4/VHL cells
  necrotic cell death of RCC4/VHL cells: relatively insensitive
LC3
  morphologic or biochemical features of autophagy (vacuoles, LC3 processing): did not induce
RCC4 and RCC4/VHL cells
  nuclear condensation: no nuclear condensation
RCC4 cells [2]; 2-deoxy-D-[3H]glucose
  glucose uptake in RCC4 cells: impaired
RCC4 cells [2]; increasing concentrations of STF-31
  glucose uptake in RCC4 cells versus concentration: dose-dependent
[3]
  glucose uptake when HIF-1β was silenced in RCC4 cells: insensitive
VHL-deficient cells
  inhibition of ATP production versus concentration: dose-dependent
VHL-deficient cells; VHL-deficient cells
  decrease in ATP levels: 75%
50 different kinases
  kinase inhibition across 50 different kinases: no significant decrease
RCC4
  3-series sensitivity (sensitivity to STF-31): Yes
RCC4/VHL
  3-series sensitivity (sensitivity to STF-31): No
SN12C
  3-series sensitivity (sensitivity to STF-31): Yes
SN12C shVHL
  3-series sensitivity (sensitivity to STF-31): Yes
